Reference: patent US5929075A, “Apolipoprotein-B synthesis inhibitors” (Janssen Pharmaceutica, N.V., priority 1994, dated 1999)

The compounds below were run on apolipoprotein B (assay: Apolipoprotein B (apo B) inhibition test in cultured human liver cells (Hepg2-cells)). Details: concentration of the drug needed to reduce apoB secretion to 50% of the control, overnight at 37° C.
Assay type: cell-based
Protocol: Cultured human liver cells (Hepg2-cells), which synthesize and secrete low-density lipoproteins, were incubated overnight at 37° C. in a liquid medium containing radioactively labelled leucine. Thus radioactively labelled leucine was incorporated into the apolipoprotein B. The liquid medium was decanted and the apolipoprotein B was isolated by means of a double immunoprecipitation, i.e. first an apolipoprotein B-specific antibody (antibody1) was added to the liquid medium and subsequently a second antibody (antibody2) was added which binds specifically to the apoB-antibody1 -complex. The thus formed apoB-antibody1 -antibody2 complex precipitated and was isolated by centrifuge. Quantification of the amount of apolipoprotein B synthesized during the night resulted from measuring the radioactivity of the isolated complex. To measure the inhibiting activity of the test compound, that test compound was added to the liquid medium at different concentrations and the concentration of apolipoprotein B synthesized in the presence of a test compound (concentration apoB(after)) was compared to the concentration of apolipoprotein B which was synthesized in the absence of the test compound (concentration apoB(control)). For each experiment the inhibition of apolipoprotein-B formation was expressed as
% inhibition=100×(1-concentration of apoB(after)/concentration
When more experiments were carried out for the same concentration, the median value of the inhibition calculated for these experiments was calculated. IC50 -values (concentration of the drug needed to reduce apoB secretion to 50% of the control) were also computed.

Row | IC50 | Compound
1 | 0.081 µM | CC(C)Cn1ncn(-c2ccc(N3CCN(c4ccc(OC[C@H]5CO[C@](CSc6ncnn6C)(c6ccc(Cl)cc6)O5)cc4)CC3)cc2)c1=O (relative stereo) [Compound 61]
2 | 0.19 µM | CCC(C)n1ncn(-c2ccc(N3CCN(c4ccc(OC[C@H]5CO[C@](CSc6ncnn6C)(c6ccc(F)cc6F)O5)cc4)CC3)cc2)c1=O (relative stereo) [Compound 62]
3 | 0.046 µM | CCC(C)n1ncn(-c2ccc(N3CCN(c4ccc(OC[C@H]5CO[C@](CSc6ncnn6C)(c6ccc(F)cc6)O5)cc4)CC3)cc2)c1=O (relative stereo) [Compound 63]
4 | 0.16 µM | CCC(CC)n1ncn(-c2ccc(N3CCN(c4ccc(OC[C@H]5CO[C@](CSc6ncnn6C)(c6ccc(F)cc6)O5)cc4)CC3)cc2)c1=O (relative stereo) [Compound 64]
5 | 0.29 µM | CCC(CC)n1ncn(-c2ccc(N3CCN(c4ccc(OC[C@H]5CO[C@](CSc6ncnn6C)(c6ccc(F)cc6F)O5)cc4)CC3)cc2)c1=O (relative stereo) [Compound 65]
6 | 0.13 µM | Cn1ncnc1SC[C@]1(c2ccc(F)cc2)OC[C@H](COc2ccc(N3CCN(c4ccc(-n5cnn(C6CCCC6)c5=O)cc4)CC3)cc2)O1 (relative stereo) [Compound 66]
7 | 0.18 µM | Cn1ncnc1SC[C@]1(c2ccc(F)cc2F)OC[C@H](COc2ccc(N3CCN(c4ccc(-n5cnn(C6CCCC6)c5=O)cc4)CC3)cc2)O1 (relative stereo) [Compound 67]
8 | 0.081 µM | CC(C)n1cnn(-c2ccc(N3CCN(c4ccc(OC[C@H]5CO[C@](CSc6ncnn6C)(c6ccc(Cl)cc6)O5)cc4)CC3)cc2)c1=O (relative stereo) [Compound 68]
9 | 0.026 µM | CCC(C)n1cnn(-c2ccc(N3CCN(c4ccc(OC[C@H]5CO[C@](CSc6ncnn6C)(c6ccc(Cl)cc6)O5)cc4)CC3)cc2)c1=O (relative stereo) [Compound 69]
10 | 0.12 µM | CCC(C)n1cnn(-c2ccc(N3CCN(c4ccc(OC[C@H]5CO[C@](CSc6ncnn6C)(c6ccc(F)cc6F)O5)cc4)CC3)cc2)c1=O (relative stereo) [Compound 71]
11 | 0.19 µM | Cn1ncnc1SC[C@]1(c2ccc(F)cc2F)OC[C@H](COc2ccc(N3CCN(c4ccc(-n5ncn(C6CCCC6)c5=O)cc4)CC3)cc2)O1 (relative stereo) [Compound 72]
12 | 0.18 µM | CCC(CC)n1cnn(-c2ccc(N3CCN(c4ccc(OC[C@H]5CO[C@](CSc6ncnn6C)(c6ccc(F)cc6F)O5)cc4)CC3)cc2)c1=O (relative stereo) [Compound 73]
13 | 0.14 µM | Cn1ncnc1SC[C@]1(c2ccc(F)cc2)OC[C@H](COc2ccc(N3CCN(c4ccc(-n5ncn(C6CCCC6)c5=O)cc4)CC3)cc2)O1 (relative stereo) [Compound 74]
14 | 0.12 µM | CCC(CC)n1cnn(-c2ccc(N3CCN(c4ccc(OC[C@H]5CO[C@](CSc6ncnn6C)(c6ccc(F)cc6)O5)cc4)CC3)cc2)c1=O (relative stereo) [Compound 75]
15 | 0.024 µM | CCC(C)n1ncn(-c2ccc(N3CCN(c4ccc(OC[C@H]5CO[C@](CSc6ncn[nH]6)(c6ccc(Cl)cc6)O5)cc4)CC3)cc2)c1=O (relative stereo) [Compound 76]
16 | 0.071 µM | CCC(C)n1ncn(-c2ccc(N3CCN(c4ccc(OC[C@H]5CO[C@](CSc6ncnn6CC)(c6ccc(Cl)cc6)O5)cc4)CC3)cc2)c1=O (relative stereo) [Compound 77]
17 | 0.053 µM | CCCn1nc(CC)nc1SC[C@]1(c2ccc(Cl)cc2)OC[C@H](COc2ccc(N3CCN(c4ccc(-n5cnn(C(C)CC)c5=O)cc4)CC3)cc2)O1 (relative stereo) [Compound 78]
18 | 0.046 µM | CCCCn1ncnc1SC[C@]1(c2ccc(Cl)cc2)OC[C@H](COc2ccc(N3CCN(c4ccc(-n5cnn(C(C)CC)c5=O)cc4)CC3)cc2)O1 (relative stereo) [Compound 79]
19 | 0.072 µM | CCCn1ncnc1SC[C@]1(c2ccc(Cl)cc2)OC[C@H](COc2ccc(N3CCN(c4ccc(-n5cnn(C(C)CC)c5=O)cc4)CC3)cc2)O1 (relative stereo) [Compound 80]
20 | 0.049 µM | CCC(C)n1ncn(-c2ccc(N3CCN(c4ccc(OC[C@H]5CO[C@](CSc6nc(C)nn6C)(c6ccc(Cl)cc6)O5)cc4)CC3)cc2)c1=O (relative stereo) [Compound 81]
21 | 0.031 µM | CCC(C)n1ncn(-c2ccc(N3CCN(c4ccc(OC[C@@H]5CO[C@@](CSc6ncnn6C(C)C)(c6ccc(Cl)cc6)O5)cc4)CC3)cc2)c1=O (relative stereo) [Compound 82]
22 | 0.015 µM | CCC(C)n1cnn(-c2ccc(N3CCN(c4ccc(OC[C@H]5CO[C@](CSc6ncn[nH]6)(c6ccc(Cl)cc6)O5)cc4)CC3)cc2)c1=O (relative stereo) [Compound 83]

Row | IC50 | Compound
23 | 0.028 µM | CC(C)Cn1cnn(-c2ccc(N3CCN(c4ccc(OC[C@H]5CO[C@](CSc6ncn[nH]6)(c6ccc(Cl)cc6)O5)cc4)CC3)cc2)c1=O (relative stereo) [Compound 84]
24 | 0.069 µM | CC(C)Cn1cnn(-c2ccc(N3CCN(c4ccc(OC[C@H]5CO[C@](CSc6ncnn6C)(c6ccc(Cl)cc6)O5)cc4)CC3)cc2)c1=O (relative stereo) [Compound 87]
25 | 0.45 µM | CCC(C)n1ncn(-c2ccc(N3CCN(c4ccc(OC[C@H]5CO[C@](CSc6nnnn6C)(c6ccc(Cl)cc6)O5)cc4)CC3)cc2)c1=O (relative stereo) [Compound 88]
26 | 0.51 µM | CCC(C)n1ncn(-c2ccc(N3CCN(c4ccc(OC[C@H]5CO[C@](CSc6nnnn6-c6ccccc6)(c6ccc(Cl)cc6)O5)cc4)CC3)cc2)c1=O (relative stereo) [Compound 89]
27 | 0.027 µM | CCC(C)n1ccn(-c2ccc(N3CCN(c4ccc(OC[C@H]5CO[C@](CSc6nncn6C)(c6ccc(Cl)cc6)O5)cc4)CC3)cc2)c1=O (relative stereo) [Compound 93]
28 | 0.19 µM | CCC(C)N1CCN(c2ccc(N3CCN(c4ccc(OC[C@H]5CO[C@](CSc6nncn6C)(c6ccc(Cl)cc6)O5)cc4)CC3)cc2)C1=O (relative stereo) [Compound 94]
29 | 0.16 µM | CCC(C)n1ncn(-c2ccc(N3CCN(c4ccc(OC[C@H]5CO[C@](CSc6ncccn6)(c6ccc(Cl)cc6)O5)cc4)CC3)cc2)c1=O (relative stereo) [Compound 101]
30 | 0.37 µM | CCC(C)n1ncn(-c2ccc(N3CCN(c4ccc(OC[C@H]5CO[C@](CSc6nc(C)cc(C)n6)(c6ccc(Cl)cc6)O5)cc4)CC3)cc2)c1=O (relative stereo) [Compound 102]
31 | 0.099 µM | CCC(C)n1ncn(-c2ccc(N3CCN(c4ccc(OC[C@H]5CO[C@](CSc6ccccn6)(c6ccc(Cl)cc6)O5)cc4)CC3)cc2)c1=O (relative stereo) [Compound 105]
32 | 0.88 µM | CCC(C)n1ncn(-c2ccc(N3CCN(c4ccc(OC[C@H]5CO[C@](CSc6ccncc6)(c6ccc(Cl)cc6)O5)cc4)CC3)cc2)c1=O (relative stereo) [Compound 106]
33 | 0.045 µM | CCC(C)n1ncn(-c2ccc(N3CCN(c4ccc(OC[C@H]5CO[C@](CSc6nc(C)co6)(c6ccc(Cl)cc6)O5)cc4)CC3)cc2)c1=O (relative stereo) [Compound 107]
34 | 0.026 µM | CCC(C)n1ncn(-c2ccc(N3CCN(c4ccc(OC[C@H]5CO[C@](CSc6nccs6)(c6ccc(Cl)cc6)O5)cc4)CC3)cc2)c1=O (relative stereo) [Compound 108]
35 | 0.027 µM | CCC(C)n1cnn(-c2ccc(N3CCN(c4ccc(OC[C@H]5CO[C@](CSc6nccs6)(c6ccc(Cl)cc6)O5)cc4)CC3)cc2)c1=O (relative stereo) [Compound 110]
36 | 0.062 µM | CC(C)Cn1cnn(-c2ccc(N3CCN(c4ccc(OC[C@H]5CO[C@](CSc6nccs6)(c6ccc(Cl)cc6)O5)cc4)CC3)cc2)c1=O (relative stereo) [Compound 111]
37 | 0.98 µM | CCC(C)n1ncn(-c2ccc(N3CCN(c4ccc(OC[C@@H]5CO[C@@](CSc6ncn(C(C)C)n6)(c6ccc(Cl)cc6)O5)cc4)CC3)cc2)c1=O (relative stereo) [Compound 112, (±)-cis-4-[4-[4-[4-[[2-(4-chlorophenyl)-2-[[[1-(1-methylethyl)-1H-1,2,4-triazol-3-yl]thio]methyl]-1,3-dioxolan-4-yl]methoxy]phenyl]-1-piperazinyl]phenyl]-2,4-dihydro-2-(1-methylpropyl)-3H-1,2,4-triazol-3-one]
38 | 0.088 µM | CCC(CC)n1ccn(-c2ccc(N3CCN(c4ccc(OC[C@H]5CO[C@](CSc6nncn6C)(c6ccc(Cl)cc6)O5)cc4)CC3)cc2)c1=O (relative stereo) [Compound 122]
39 | 0.074 µM | Cn1cnnc1SC[C@]1(c2ccc(Cl)cc2)OC[C@H](COc2ccc(N3CCN(c4ccc(-n5ccn(C6CCCC6)c5=O)cc4)CC3)cc2)O1 (relative stereo) [Compound 123]
40 | 0.14 µM | CCC(C)n1ccn(-c2ccc(N3CCN(c4ccc(OC[C@H]5CO[C@](CSc6nncn6C)(c6ccc(F)cc6)O5)cc4)CC3)cc2)c1=O (relative stereo) [Compound 126]
41 | 0.18 µM | Cn1cnnc1SC[C@]1(c2ccc(F)cc2)OC[C@H](COc2ccc(N3CCN(c4ccc(-n5ccn(C6CCCC6)c5=O)cc4)CC3)cc2)O1 (relative stereo) [Compound 128]
42 | 0.14 µM | CCC(CC)n1ccn(-c2ccc(N3CCN(c4ccc(OC[C@H]5CO[C@](CSc6nncn6C)(c6ccc(F)cc6)O5)cc4)CC3)cc2)c1=O (relative stereo) [Compound 130]
43 | 0.065 µM | CC[C@H](C)n1ncn(-c2ccc(N3CCN(c4ccc(OC[C@@H]5CO[C@@](CSc6nncn6C)(c6ccc(Cl)cc6)O5)cc4)CC3)cc2)c1=O [Compound 38]
